The numbers were not newly measured in US6365551B1, “Highly concentrated glyphosate herbicidal compositions” (Monsanto Technology LLC, priority 1990, dated 2002), which cites them from elsewhere.

The conditions of the data set: glyphosate in acid form.

For `O=C(O)CNCP(=O)(O)O` [glyphosate, N-phosphonomethylglycine], the water solubility entry is “about 1.2%”.
